Here are results for 17 molecules from patent US10351522B2, “Sulfonamide derivative and pharmaceutically acceptable acid addition salt thereof” (UNIVERSITY OF TSUKUBA, priority 2015, dated 2019).

Read-outs that look alike come from different tables or passages of the source.

One experiment deals with T1, human OX1R (Homo sapiens, UniProt O43613).
T1 construct: expressed in transfected cells; host or cells: CHO (Chinese hamster ovary) cells, line CHOOX1R, co-expressing NFAT-luciferase
T1 sequence (O43613 1-425): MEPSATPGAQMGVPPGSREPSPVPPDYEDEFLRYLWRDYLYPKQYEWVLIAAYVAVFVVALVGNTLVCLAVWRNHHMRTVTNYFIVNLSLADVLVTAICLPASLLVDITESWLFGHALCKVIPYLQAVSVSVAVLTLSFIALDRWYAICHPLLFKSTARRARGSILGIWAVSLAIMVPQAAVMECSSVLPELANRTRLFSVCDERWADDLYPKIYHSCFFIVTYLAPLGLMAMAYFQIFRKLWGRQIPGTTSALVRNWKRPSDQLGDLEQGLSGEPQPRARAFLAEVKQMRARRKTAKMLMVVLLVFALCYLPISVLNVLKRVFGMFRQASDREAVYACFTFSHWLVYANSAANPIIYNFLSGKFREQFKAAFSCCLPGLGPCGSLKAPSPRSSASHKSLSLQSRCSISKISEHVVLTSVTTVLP
Description: Agonist activity against OX1R: intracellular calcium (Fura-2AM, FDSS7000) in CHOOX1R cells. It is filed as cell-based. The following applies: for Emax at 0.1 µM / Emax at 1 µM / Emax at 10 µM: read-out: Response (%) OX1R. Here is the method:
(§1) Evaluation of Agonist Activity Against OX1R and OX2R
(§2) NAFT-luciferase gene and human OX1R gene were constitutively expressed in CHO cell, which is a cell line derived from Chinese hamster ovary to establish a cell line (CHOOX1R) and NAFT-luciferase gene and human OX2R gene were constitutively expressed in CHO cell to establish a cell line (CHOOX2R). The respective cells were seeded in a 96-well Multiplate at 10,000 cells/well and cultured in a 5% FBS (Thermo Scientific)-added DMEM medium (Sigma-Aldrich) for 48 hr. The medium was removed, an assay buffer (20 mM HEPES (Sigma-Aldrich), Hanks' balanced salt solution (Gibco), 0.1% BSA (Sigma-Aldrich), 2.5 mM probenecid acid (Wako Pure Chemical Industries, Ltd.)) (100 μL) containing 5 μM Fura-2AM (Cayman Chemical) was added, and the cells were incubated for 60 min. The buffer containing Fura-2AM was removed, and an assay buffer (75 μL) was added. An assay buffer (25 μL) containing a test compound was added thereto to start the reaction. Changes in the intracellular calcium ion concentration due to the reaction were measured by measuring the fluorescence intensity ratio by dual wavelength excitation at 340 and 380 nm, by using FDSS7000 (Hamamatsu Photonics K.K.). The test compound was dissolved in DMSO to 10 mM, and diluted with the assay buffer to a final concentration of 10^−7M to 10^−5M (final concentration of DMSO 1%).
(§3) (As used herein, Response in Table 21 to Table 27 is a value obtained by dividing the agonist activity value, when the test compound is evaluated with orexin-A as a full-agonist (maximum value of agonist activity: 100%), at 10 μM, 1.0 μM, 0.1 μM by the agonist activity value of orexin-A.)

For a further experiment, the target named is T2, human OX2R (Homo sapiens, UniProt O43614).
T2 construct: expressed in transfected cells; host or cells: CHO (Chinese hamster ovary) cells, line CHOOX2R, co-expressing NFAT-luciferase
T2 sequence (O43614 1-444): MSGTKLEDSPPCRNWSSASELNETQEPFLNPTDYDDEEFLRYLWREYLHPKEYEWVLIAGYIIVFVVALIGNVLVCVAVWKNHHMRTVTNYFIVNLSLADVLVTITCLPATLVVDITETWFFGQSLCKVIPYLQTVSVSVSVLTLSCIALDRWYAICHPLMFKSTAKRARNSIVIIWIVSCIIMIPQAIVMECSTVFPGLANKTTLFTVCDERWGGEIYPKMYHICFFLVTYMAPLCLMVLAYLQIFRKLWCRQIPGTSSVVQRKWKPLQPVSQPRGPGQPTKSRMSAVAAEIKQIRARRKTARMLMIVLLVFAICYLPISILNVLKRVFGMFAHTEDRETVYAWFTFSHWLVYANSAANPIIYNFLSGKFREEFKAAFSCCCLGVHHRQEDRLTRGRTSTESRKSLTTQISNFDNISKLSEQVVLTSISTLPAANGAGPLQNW
Description: Agonist activity against OX2R: intracellular calcium (Fura-2AM, FDSS7000) in CHOOX2R cells. It is filed as cell-based. The following applies: relative to orexin-A as full agonist (100%). The method, then: as §1, §2, §3
On the technique in general: Calcium assays in cells follow changes in intracellular calcium, usually with a dye or a luminescent sensor.

Setting [1] is: 0.1 μM test compound, relative to orexin-A as full agonist (100%).
The mark [2] stands for this setting: 1.0 μM test compound, relative to orexin-A as full agonist (100%).
The mark [3] stands for this setting: 10 μM test compound, relative to orexin-A as full agonist (100%).

On to `COc1ccc(-c2cccc(C(=O)N(C)C)c2)cc1S(=O)(=O)Nc1cccc(NCc2ccccc2)c1` [Example 20, 3′-(N-(3-(benzylamino)phenyl)sulfamoyl)-4′-methoxy-N,N-dimethyl-[1,1′-biphenyl]-3-carboxamide], for which, at human OX1R (setting [1]), the Emax at 0.1 µM was under 5%. The Emax at 1 µM at human OX1R (setting [2]) is under 5%. For the same molecule, the Emax at 10 µM at human OX1R (setting [3]) worked out at 17%. Also, the figures for the “Response (%) OX2R” value on human OX2R (0.1 μM test compound), on human OX2R (1.0 μM test compound) and at human OX2R (10 μM test compound) were under 5%, 51% and 78%, respectively.

Regarding `COc1ccccc1CNc1cccc(NS(=O)(=O)c2cc(-c3cccc(C(=O)N(C)C)c3)ccc2OC)c1` [Example 21], the “Response (%) OX1R” value at human OX1R (setting [1]) is recorded as under 5%; at human OX1R (setting [2]), under 5%; on human OX1R (setting [3]) it was 12%. Moreover, the “Response (%) OX2R” value on human OX2R (0.1 μM test compound) is under 5%; on human OX2R (1.0 μM test compound), 37%; on human OX2R (10 μM test compound) it was 54%.

As for `COc1ccc(CNc2cccc(NS(=O)(=O)c3cc(-c4cccc(C(=O)N(C)C)c4)ccc3OC)c2)cc1` [Example 22], the “Response (%) OX1R” value at human OX1R (setting [1]) is under 5%; on human OX1R (setting [2]), 47%; at human OX1R (setting [3]), 82%. Also, the “Response (%) OX2R” value on human OX2R (0.1 μM test compound) was found to be 57%; at human OX2R (1.0 μM test compound), 61%; at human OX2R (10 μM test compound), 48%.

On to `COc1cccc(CNc2cccc(NS(=O)(=O)c3cc(-c4cccc(C(=O)N(C)C)c4)ccc3OC)c2)c1` [Example 23], for which the “Response (%) OX1R” value on human OX1R (setting [1]) is under 5%; at human OX1R (setting [2]), 10%; at human OX1R (setting [3]), 51%. Also, the “Response (%) OX2R” value at human OX2R (0.1 μM test compound) is 54%; at human OX2R (1.0 μM test compound), 95%; on human OX2R (10 μM test compound) it was 86%.

On to `COc1ccc(-c2cccc(C(=O)N(C)C)c2)cc1S(=O)(=O)Nc1cccc(NCc2ccccc2C)c1` [Example 24], for which the “Response (%) OX1R” value on human OX1R (setting [1]) is reported as under 5%; at human OX1R (setting [2]) it was under 5%; on human OX1R (setting [3]), 6%. For the same molecule, the entries for the “Response (%) OX2R” value at human OX2R (0.1 μM test compound), at human OX2R (1.0 μM test compound) and at human OX2R (10 μM test compound) were under 5%, 72% and 93%, respectively.

As to `COc1ccc(-c2cccc(C(=O)N(C)C)c2)cc1S(=O)(=O)Nc1cccc(NCc2cccc(C)c2)c1` [Example 25], the “Response (%) OX1R” value on human OX1R (setting [1]) was under 5%; at human OX1R (setting [2]) it was under 5%; on human OX1R (setting [3]), 32%. Also, the “Response (%) OX2R” value at human OX2R (0.1 μM test compound) was 21%; on human OX2R (1.0 μM test compound), 88%; on human OX2R (10 μM test compound), 97%.

For `COc1ccc(-c2cccc(C(=O)N(C)C)c2)cc1S(=O)(=O)Nc1cccc(NCc2ccccc2O)c1` [Example 26], the “Response (%) OX1R” value at human OX1R (setting [1]) was under 5%; on human OX1R (setting [2]) it was under 5%; on human OX1R (setting [3]), 9%. The “Response (%) OX2R” value at human OX2R (0.1 μM test compound) is given as under 5%; at human OX2R (1.0 μM test compound), 51%; at human OX2R (10 μM test compound) it was 101%.

For `COc1ccc(-c2cccc(C(=O)N(C)C)c2)cc1S(=O)(=O)Nc1cccc(NCc2ccc(C)cc2)c1` [Example 27], the entries for the “Response (%) OX1R” value at human OX1R (setting [1]), at human OX1R (setting [2]) and on human OX1R (setting [3]) were under 5%, 24% and 70%, respectively. In addition, the entries for the “Response (%) OX2R” value on human OX2R (0.1 μM test compound), on human OX2R (1.0 μM test compound) and at human OX2R (10 μM test compound) were 90%, 126% and 92%, respectively.

On to `COc1ccc(-c2cccc(C(=O)N(C)C)c2)cc1S(=O)(=O)Nc1cccc(NCc2ccccc2Br)c1` [Example 28], for which the “Response (%) OX1R” value on human OX1R (setting [1]), at human OX1R (setting [2]) and at human OX1R (setting [3]) was under 5% throughout. Moreover, the “Response (%) OX2R” value at human OX2R (0.1 μM test compound) came to 6%; on human OX2R (1.0 μM test compound), 54%; on human OX2R (10 μM test compound), 81%.

For `COc1ccc(Nc2cccc(NS(=O)(=O)c3cc(-c4cccc(C(=O)N(C)C)c4)ccc3OC)c2)cc1` [Example 29], the “Response (%) OX1R” value on human OX1R (setting [1]), at human OX1R (setting [2]) and on human OX1R (setting [3]) was under 5% in each case. Also, the “Response (%) OX2R” value on human OX2R (0.1 μM test compound) was found to be 11%; on human OX2R (1.0 μM test compound), 84%; on human OX2R (10 μM test compound), 81%.

For the molecule `COc1ccc(-c2cccc(C(=O)N(C)C)c2)cc1S(=O)(=O)Nc1cccc(Nc2ccccc2)c1` [Example 30, 4′-methoxy-N,N-dimethyl-3′-(N-(3-(phenylamino)phenyl)sulfamoyl)-[1,1′-biphenyl]-3-carboxamide], the Emax at 0.1 µM at human OX1R was under 5%. Also, on human OX1R, the Emax at 1 µM was under 5%. In addition, the Emax at 10 µM on human OX1R is under 5%. The “Response (%) OX2R” value at human OX2R (0.1 μM test compound) was under 5%; on human OX2R (1.0 μM test compound), under 5%; at human OX2R (10 μM test compound), 39%.

As to `COc1ccccc1Nc1cccc(NS(=O)(=O)c2cc(-c3cccc(C(=O)N(C)C)c3)ccc2OC)c1` [Example 31], the “Response (%) OX1R” value on human OX1R (setting [1]), at human OX1R (setting [2]) and at human OX1R (setting [3]) was under 5% throughout. For the same molecule, the results for the “Response (%) OX2R” value on human OX2R (0.1 μM test compound), at human OX2R (1.0 μM test compound) and at human OX2R (10 μM test compound) were under 5%, 10% and 72%, respectively.

As for `COc1cccc(Nc2cccc(NS(=O)(=O)c3cc(-c4cccc(C(=O)N(C)C)c4)ccc3OC)c2)c1` [Example 32], the “Response (%) OX1R” value at human OX1R (setting [1]) is on record as under 5%; at human OX1R (setting [2]), under 5%; on human OX1R (setting [3]), 14%. The “Response (%) OX2R” value turned out to be 13% at human OX2R (0.1 μM test compound), 79% at human OX2R (1.0 μM test compound) and 88% at human OX2R (10 μM test compound).

For the molecule `COc1ccc(Nc2cccc(NS(=O)(=O)c3cc(-c4cccc(C(=O)N(C)C)c4)ccc3OC)c2)cc1OC` [Example 33], the “Response (%) OX1R” value was under 5% on human OX1R (setting [1]), under 5% at human OX1R (setting [2]) and 50% at human OX1R (setting [3]). Further, the “Response (%) OX2R” value came to 37% on human OX2R (0.1 μM test compound), 92% on human OX2R (1.0 μM test compound) and 87% on human OX2R (10 μM test compound).

`COc1ccc(-c2cccc(C(=O)N(C)C)c2)cc1S(=O)(=O)Nc1cccc(Nc2ccc(C(=O)N(C)C)cc2)c1` [Example 34]: the “Response (%) OX1R” value on human OX1R (setting [1]), on human OX1R (setting [2]) and on human OX1R (setting [3]) was under 5% each time. Further, the results for the “Response (%) OX2R” value on human OX2R (0.1 μM test compound), on human OX2R (1.0 μM test compound) and at human OX2R (10 μM test compound) were under 5%, 52% and 95%, respectively.

With `COc1ccc(-c2cccc(C(=O)N(C)C)c2)cc1S(=O)(=O)Nc1cccc(Nc2cccc(C(F)(F)F)c2)c1` [Example 35], the “Response (%) OX1R” value on human OX1R (setting [1]), at human OX1R (setting [2]) and on human OX1R (setting [3]) was under 5% in each case. For the same molecule, the “Response (%) OX2R” value on human OX2R (0.1 μM test compound) is on record as under 5%; at human OX2R (1.0 μM test compound), 35%; at human OX2R (10 μM test compound), 63%.

As for `COc1ccc(-c2cccc(C(=O)N(C)C)c2)cc1S(=O)(=O)Nc1cccc(Nc2ccc3c(c2)OCO3)c1` [Example 36], the “Response (%) OX1R” value on human OX1R (setting [1]) is under 5%; on human OX1R (setting [2]), under 5%; on human OX1R (setting [3]), 10%. Further, the “Response (%) OX2R” value on human OX2R (0.1 μM test compound) is recorded as under 5%; at human OX2R (1.0 μM test compound), 63%; on human OX2R (10 μM test compound), 93%.
